The term CC50 denotes the concentration giving 50% cytotoxicity.

The source of these data is ChEMBL document CHEMBL4513161, “CO-ADD screening of MMV (CH) - Pandemic Response Box” (2021).

≈ marks a conversion by molar mass, not a printed value. Bounds are passed on as bounds.

Experiment [1] deals with HEK293. Nature of the experiment: cells. The experiment is classed as functional, Homo sapiens, ATCC CRL1573. As to conditions: Homo sapiens, ATCC CRL1573, HEK293; ASSAY_TEST Inhibition of Cell Viability; detection method Resazurin; Fluorescence (ex560/em590); MEDIA DMEM with 10% FBS; plate type 384well; TC; CORNING #3712; time 18 hr; read-out: CC50.
The test system of experiment [2] is Pseudomonas aeruginosa. The experiment can be described thus: Antibacterial activity against Pseudomonas aeruginosa PAO397 [PAO1 d(mexAB-oprM) d(mexCD-oprJ) d(mexEF-oprN) d(mexJKL) d(mexXY) d(opmH)] (CO-ADD:GN_211); MIC in CAMBH media using NBS plates, by OD(600). It counts as functional. Particulars: ASSAY_TEST Inhibition of Bacterial Growth, detection method Absorption (OD600), MEDIA CAMHB, plate type 384well, CORNING #3640, time 18 hr.

The subject of experiment [3] is Cryptococcus neoformans.
Description: Antifungal activity against Cryptococcus neoformans H99 ATCC 208821 (CO-ADD:FG_002); MIC in YNB media using NBS plates, by Resazurin OD(600-570)
The subject of experiment [4] is Staphylococcus aureus. The experiment can be described thus: microbe, parasite or virus in culture. Particulars: ATCC 43300, 18 h, ASSAY_TEST Inhibition of Bacterial Growth, detection method Absorption (OD600), MEDIA CAMHB, plate type 384well, NBS, CORNING #3640.
Description: Antibacterial activity against Staphylococcus aureus MRSA ATCC 43300 (CO-ADD:GP_020); MIC in CAMBH media, using NBS plates, by OD(600)
Experiment [5] concerns Escherichia coli. The experiment can be described thus: microbe, parasite or virus in culture. Particulars: ATCC 25922, 18 h, ASSAY_TEST Inhibition of Bacterial Growth, detection method Absorption (OD600), MEDIA CAMHB, plate type 384well, NBS, CORNING #3640.
Description: Antibacterial activity against Escherichia coli ATCC 25922 (CO-ADD:GN_001); MIC in CAMBH media using NBS plates, by OD(600)
Experiment [6] has as its system Klebsiella pneumoniae. The experiment can be described thus: microbe, parasite or virus in culture. As to conditions: ATCC 700603, 18 h, ASSAY_TEST Inhibition of Bacterial Growth, detection method Absorption (OD600), MEDIA CAMHB, plate type 384well, NBS, CORNING #3640.
Description: Antibacterial activity against Klebsiella pneumoniae MDR ATCC 70063 (CO-ADD:GN_003); MIC in CAMBH media using NBS plates, by OD(600)
The subject of experiment [7] is Pseudomonas aeruginosa. Nature of the experiment: microbe, parasite or virus in culture. Particulars: ATCC 27853, 18 h, ASSAY_TEST Inhibition of Bacterial Growth, detection method Absorption (OD600), MEDIA CAMHB, plate type 384well, NBS, CORNING #3640.
Description: Antibacterial activity against Pseudomonas aeruginosa ATCC 27853 (CO-ADD:GN_042); MIC in CAMBH media using NBS plates, by OD(600)
The subject of experiment [8] is Acinetobacter baumannii. Nature of the experiment: microbe, parasite or virus in culture. Particulars: ATCC 19606, 18 h, ASSAY_TEST Inhibition of Bacterial Growth, detection method Absorption (OD600), MEDIA CAMHB, plate type 384well, NBS, CORNING #3640.
Description: Antibacterial activity against Acinetobacter baumannii ATCC 19606 (CO-ADD:GN_034); MIC in CAMBH media using NBS plates, by OD600
The test system of experiment [9] is Candida albicans. The experiment can be described thus: microbe, parasite or virus in culture. As to conditions: ATCC 90028, ASSAY_TEST Inhibition of Fungal Growth, detection method Absorption (OD530), plate type 384well, NBS, CORNING #3640.
Description: Antifungal activity against Candida albicans ATCC 90028 (CO-ADD:FG_001); MIC in YNB media using NBS plates, by OD630

As to `O=P(O)(O)C(CCCc1cccc(Oc2ccccc2)c1)S(=O)(=O)O` (configuration not stated), the CC50 in experiment [1] was greater than 20 µM. In addition, the MIC in [2], in [3], in [4], in [5], in experiment [6] and in experiment [7] was greater than 20 µM each time. Besides, the MIC in experiment [8] and in [9] was greater than 20 µM in each case.
As for `CC(C)Nc1ncnc2c1cnn2-c1ccc(Cl)cc1`, in experiment [1], the CC50 is greater than 20 µM. Further, the MIC in experiment [2], in experiment [3], in [4], in experiment [5], in [6] and in experiment [7] was greater than 20 µM in each case. Also, the MIC in [8] and in experiment [9] was greater than 20 µM throughout.
`CCOc1ccc(C(=O)NCCc2ccccc2)cc1`: in experiment [1], the CC50 is greater than 20 µM. Besides, the MIC in [2], in experiment [3], in [4], in experiment [5], in experiment [6] and in experiment [7] was greater than 20 µM throughout. Further, the MIC in experiment [8] and in experiment [9] was greater than 20 µM in each case.
`Nc1c(C(=O)NCc2ccco2)c2nc3ccccc3nc2n1CCN1CCCCC1`: the CC50 in [1] is greater than 20 µM. The MIC in experiment [2], in [3], in experiment [4], in [5], in experiment [6] and in [7] was greater than 20 µM in each case. The MIC in experiment [8] and in experiment [9] was greater than 20 µM in each case.
`COc1c(F)c(F)cc2c(=O)c(C(=O)O)cn(C3CC3)c12`: the 50% cytotoxic concentration (CC50) in [1] was greater than 20 µM. Moreover, the MIC in experiment [2] was 5 µM (≈ 1.48 µg/mL); in experiment [3] it was greater than 20 µM; in experiment [4] it was 20 µM (≈ 5.9 µg/mL); in experiment [5], 2.5 µM (≈ 0.738 µg/mL); in experiment [6] it was greater than 20 µM; in [7] it was 10 µM (≈ 2.95 µg/mL). Further, the MIC in experiment [8] and in [9] was greater than 20 µM in each case.
With `CCc1c(O)nc2ccc(F)cc2c1OCC1CCC1`, in [1], the CC50 was greater than 20 µM. The MIC in experiment [2], in experiment [3], in [4], in experiment [5], in [6] and in [7] was greater than 20 µM throughout. The MIC in [8] and in experiment [9] was greater than 20 µM in each case.
With `C[C@H](NC(CC(=O)c1ccccc1C(F)(F)F)C(=O)O)c1ccccc1` (some centres not stated), the CC50 in experiment [1] was greater than 20 µM. Besides, the MIC in experiment [2], in experiment [3], in [4], in experiment [5], in experiment [6] and in experiment [7] was greater than 20 µM throughout. For the same molecule, the MIC in [8] and in experiment [9] was greater than 20 µM in each case.
For the molecule `CCOc1noc2cc(OCCC3CCN(c4ccc(C)nn4)CC3)ccc12`, the 50% cytotoxic concentration (CC50) in experiment [1] was greater than 20 µM. The MIC in experiment [2], in experiment [3], in experiment [4], in experiment [5], in experiment [6] and in experiment [7] was greater than 20 µM in each case. The MIC in experiment [8] and in experiment [9] was greater than 20 µM throughout.
`Nc1cc(-c2nc3ccccc3[nH]2)n[nH]c1=O`: the CC50 in experiment [1] is greater than 20 µM. For the same molecule, the MIC in [2], in experiment [3], in experiment [4], in [5], in experiment [6] and in experiment [7] was greater than 20 µM in each case. Also, the MIC in [8] and in experiment [9] was greater than 20 µM each time.
In the case of `CCc1cc(O)c(Oc2ccc(C(N)=O)cc2F)cc1F`, in experiment [1], the CC50 is greater than 20 µM. For the same molecule, the MIC was greater than 20 µM in experiment [2]; greater than 20 µM in experiment [3]; no more than 0.156 µM in [4]; 2.5 µM (≈ 0.733 µg/mL) in experiment [5]; greater than 20 µM in [6]; 10 µM (≈ 2.93 µg/mL) in [7]. In addition, the MIC in [8] and in experiment [9] was greater than 20 µM in each case.
With `O=C(CC1Sc2ncnn2C1=O)Nc1ccc(Br)cc1` (configuration not stated), in experiment [1], the CC50 is greater than 20 µM. Further, the MIC was greater than 20 µM in experiment [2]; 10 µM (≈ 3.53 µg/mL) in experiment [3]; greater than 20 µM in [4]; greater than 20 µM in [5]; greater than 20 µM in experiment [6]; greater than 20 µM in experiment [7]. Besides, the MIC in experiment [8] is greater than 20 µM; in experiment [9], 20 µM (≈ 7.06 µg/mL).
As for `Cc1cc(C)n2nc(C(=O)NS(=O)(=O)c3c(C)cccc3OC(F)(F)F)nc2n1`, the CC50 in experiment [1] was greater than 20 µM. Further, the MIC in [2], in experiment [3], in experiment [4], in experiment [5], in experiment [6] and in [7] was greater than 20 µM in each case. Also, the MIC in [8] and in experiment [9] was greater than 20 µM each time.
`O=C(Cn1cnc2ccccc2c1=O)Nc1ccccc1`: in experiment [1], the CC50 was greater than 20 µM. Besides, the MIC in [2], in [3], in experiment [4], in experiment [5], in experiment [6] and in experiment [7] was greater than 20 µM throughout. The MIC in experiment [8] and in experiment [9] was greater than 20 µM in each case.
For the molecule `CCC(C)NCC(O)Cn1c2ccc(Cl)cc2c2cc(Cl)ccc21` (configuration not stated), in experiment [1], the CC50 came out at 6.84 µM. The MIC was greater than 20 µM in experiment [2]; greater than 20 µM in [3]; 20 µM (≈ 7.31 µg/mL) in [4]; greater than 20 µM in experiment [5]; greater than 20 µM in experiment [6]; greater than 20 µM in experiment [7]. The MIC in [8] and in experiment [9] was greater than 20 µM throughout.
Regarding `O=S(=O)(NCB(O)O)c1ccc(-c2nnn[nH]2)cc1C(F)(F)F`, in experiment [1], the CC50 was greater than 20 µM. In addition, the MIC in [2], in experiment [3], in [4], in [5], in experiment [6] and in [7] was greater than 20 µM throughout. Further, the MIC in experiment [8] and in [9] was greater than 20 µM each time.
With `CCc1ccccc1OCCN1CCCCCC1`, the CC50 in experiment [1] is greater than 20 µM. For the same molecule, the MIC in experiment [2], in experiment [3], in experiment [4], in [5], in experiment [6] and in experiment [7] was greater than 20 µM each time. Besides, the MIC in [8] and in experiment [9] was greater than 20 µM each time.
For the molecule `O=C(/C=C/n1cnc(-c2cc(C(F)(F)F)cc(C(F)(F)F)c2)n1)NNc1cnccn1`, the CC50 in experiment [1] is greater than 20 µM. For the same molecule, the MIC in experiment [2], in [3], in experiment [4], in experiment [5], in [6] and in experiment [7] was greater than 20 µM in each case. The MIC in experiment [8] and in [9] was greater than 20 µM each time.
Consider `CCNC(=O)Nc1cn2c(-c3ncc(CC)cn3)cc(-c3cccnc3)cc2n1`, for which the CC50 in experiment [1] is greater than 20 µM. For the same molecule, the MIC in experiment [2], in experiment [3], in [4], in experiment [5], in experiment [6] and in experiment [7] was greater than 20 µM in each case. In addition, the MIC in experiment [8] and in experiment [9] was greater than 20 µM in each case.
